In article PMC10092844, “Inhibition profile of trifludimoxazin towards PPO2 target site mutations” (Pest Management Science, 2022):

Legend:
[1] = target: T1, PPO2 R128I ΔG210 in Escherichia coli hemG (Amaranthus tuberculatus, UniProt Q0NZW9, DEL210-210/R128I, cells depend on it); type: cell-based; settings: read-out: IC50 (E. coli hemG growth)
T1 sequence (Q0NZW9 with tags, fused parts or gaps R128I/DEL210-210): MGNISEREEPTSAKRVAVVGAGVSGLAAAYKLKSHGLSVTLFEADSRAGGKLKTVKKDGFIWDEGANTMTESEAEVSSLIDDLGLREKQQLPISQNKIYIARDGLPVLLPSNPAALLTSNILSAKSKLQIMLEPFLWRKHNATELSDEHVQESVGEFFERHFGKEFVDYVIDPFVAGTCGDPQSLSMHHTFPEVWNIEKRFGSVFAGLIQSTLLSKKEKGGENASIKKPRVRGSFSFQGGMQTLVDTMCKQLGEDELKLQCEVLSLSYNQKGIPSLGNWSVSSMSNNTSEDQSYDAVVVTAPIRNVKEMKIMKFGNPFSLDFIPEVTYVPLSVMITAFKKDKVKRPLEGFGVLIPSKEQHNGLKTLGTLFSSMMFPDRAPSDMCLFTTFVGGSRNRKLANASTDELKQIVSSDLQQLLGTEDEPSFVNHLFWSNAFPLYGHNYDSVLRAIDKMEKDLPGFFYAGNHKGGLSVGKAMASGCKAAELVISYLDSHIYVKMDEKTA

PPO2 wild-type = PPO2 wild-type (Amaranthus tuberculatus, UniProt Q0NZW9); test: in vitro inhibition assay, recombinant PPO2 enzyme; type: biochemical
Sequence of PPO2 wild-type (Q0NZW9 entry or part of it): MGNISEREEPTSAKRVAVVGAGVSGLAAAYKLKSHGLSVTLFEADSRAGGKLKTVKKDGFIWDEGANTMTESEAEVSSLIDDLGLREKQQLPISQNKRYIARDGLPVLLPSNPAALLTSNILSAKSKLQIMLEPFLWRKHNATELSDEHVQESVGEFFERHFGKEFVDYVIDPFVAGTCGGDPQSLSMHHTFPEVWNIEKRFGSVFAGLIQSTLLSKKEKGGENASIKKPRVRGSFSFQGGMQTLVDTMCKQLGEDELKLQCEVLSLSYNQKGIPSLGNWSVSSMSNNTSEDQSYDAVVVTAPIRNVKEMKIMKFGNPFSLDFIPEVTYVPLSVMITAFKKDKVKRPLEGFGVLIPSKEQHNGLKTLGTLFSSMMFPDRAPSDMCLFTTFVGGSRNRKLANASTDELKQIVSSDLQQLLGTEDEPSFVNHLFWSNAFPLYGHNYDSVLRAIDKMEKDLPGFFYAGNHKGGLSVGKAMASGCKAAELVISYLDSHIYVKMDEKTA

| Structure (SMILES) | IC50 [1] | Resistance factor (PPO2 wild-type) |
| --- | --- | --- |
| CCOC(=O)C(C)OC(=O)c1cc(Oc2ccc(C(F)(F)F)cc2Cl)ccc1[N+](=O)[O-] (stereo not shown) [Lactofen, lactofen] | > 10 µM | – |
| CC(C)N(C)S(=O)(=O)NC(=O)c1cc(-n2c(=O)cc(C(F)(F)F)n(C)c2=O)c(F)cc1Cl [Saflufenacil, saflufenacil] | > 10 µM | – |
| C#CCN1C(=O)C(F)(F)Oc2cc(F)c(-n3c(=O)n(C)c(=S)n(C)c3=O)cc21 [Trifludimoxazin, trifludimoxazin] | 0.0829 µM | 1 |
